Measured values from BigSolDB 2.1.

O=C(NC[C@H]1CN(c2ccc(N3CCOCC3=O)cc2)C(=O)O1)c1ccc(Cl)s1
solubility (mole fraction)
Conditions	278.15 K	283.15 K	288.15 K	293.15 K	298.15 K	303.15 K	308.15 K	313.15 K	318.15 K
in DMAc	0.00978	0.0108	0.0119	0.0131	0.0144	0.0158	0.0173	0.0189	0.0206
in DMF	0.00586	0.00662	0.00747	0.0084	0.00943	0.0106	0.0118	0.0132	0.0147
in THF	0.000205	0.00023	0.000263	0.00029	0.000328	0.000359	0.000401	0.00045	0.000511
in ethyl acetate	5.17e-05	5.93e-05	6.79e-05	7.74e-05	8.81e-05	0.0001	0.000113	0.000128	0.000144
